In patent US8409618B2, “Odor-reducing quinone compounds” (Kimberly-Clark Worldwide, Inc., priority 2002, dated 2013):

How the values were obtained:
[1] = Urine odor panel ranking, dye powders in urine, 8 millimolar (Example 5); design: species or system human; settings: 8 millimolar dye in urine; for urine malodor reduction (panel): 6 and 24 hours; for Avg. Ranking (odor) / Ranking (number of panelists): ranking 4 / Ranking (number of panelists): ranking 5 / Ranking (number of panelists): ranking 1 / Ranking (number of panelists): ranking 3 / Ranking (number of panelists): ranking 7: 10 most, 1 least malodorous
Protocol: Qualitative odor reduction was also assessed against common odors, such as garlic and urine. Specifically, panelists assessed odorant-containing jars by carefully unscrewing, and then raising the lid of each jar in a controlled manner, such that the odor was not diluted by the ambient air. The jars were wrapped and coded to ensure that the sample identity was unknown. The effectiveness of various quinone dyes in reducing urine odor was compared. Human female urine was initially collected and pooled by a nurse on staff at Kimberly-Clark Corporation.

[2] = Urine odor and secondary odor panel ranking, dye powders in urine, 8 millimolar (Example 7); design: species or system human; settings: for Secondary Odor Ranking: scale 1 to 5, 5 extremely unpleasant, individual panelists' scores; for Average Urine Odor Ranking (with statistical corrections), Avg. Score: ignoring statistical anomalies
Protocol: Qualitative odor reduction was also assessed against common odors, such as garlic and urine. Specifically, panelists assessed odorant-containing jars by carefully unscrewing, and then raising the lid of each jar in a controlled manner, such that the odor was not diluted by the ambient air. The jars were wrapped and coded to ensure that the sample identity was unknown.
The effectiveness of various dyes in reducing urine odor was compared. […] Human female urine was initially collected and pooled by a nurse on staff at Kimberly-Clark Corporation. The pooled urine was added to mason jars in 50-milliliter aliquots using an automated pipette aid. Powders of the aforementioned dyes (commercially available from Sigma-Aldrich Chemical Co., Inc. of St. Louis, Mo. and Noveon Hilton Davis, Inc. of Cincinnati, Ohio) were weighed and placed into the mason jars containing 50 milliliters of urine so that the final concentration of the dye powder was 8 millimolar (equivalent to 0.5 wt. %). The mason jars were placed in an incubator overnight at 37° C.
To aid in the assessment of the dyes, the mason jars were divided into two groups for a morning assessment, and the best of both groups were compared in an afternoon assessment (after a total of 24 hours). In addition to ranking the jars from least to most malodorous (on a scale from 1 to 7, with 7 being the most malodors), panelists were also asked to judge whether there were secondary (non-urine) odors present and, if so, the extent that the secondary odors were unpleasant (on a scale from 1 to 5, with 5 being extremely unpleasant).
In this assessment, panelists were given instructions to rank the least malodorous jar as “1” and the most malodorous jar as “10,” remaining free to rank the other jars between 2-9.

[3] = After 24 Hours, top performers of both groupings, 1 least, 10 most malodorous
[4] = Second Grouping, morning assessment, 8 millimolar, higher = more malodorous
[5] = after 24 hours, top performers, 1 least, 10 most malodorous

Row | Structure (SMILES) | urine malodor reduction (panel) [1] | Avg. Ranking (odor) ([1]; After 6 Hours) | Ranking (number of panelists): ranking 5 ([1]; After 6 Hours) | Avg. Ranking (odor) ([1]; After 24 Hours) | Ranking (number of panelists): ranking 7 ([1]; After 24 Hours) | Urine Odor Ranking (number of panelists): ranking 2 [2, 3] | Urine Odor Ranking (number of panelists): ranking 10 [2, 3] | Secondary Odor Ranking ([2]; After 24 Hours) | Urine Odor Ranking (number of panelists): ranking 4 [2, 4] | Urine Odor Ranking (number of panelists): ranking 5 [2, 4] | Secondary Odor Ranking ([2]; Second Grouping) | Average Urine Odor Ranking, Avg. Score [2, 5] | Average Urine Odor Ranking (with statistical corrections), Avg. Score ([2]; after 24 hours, top performers) | other results
1 | CCCCc1ccc(Nc2ccc(Nc3ccc(CCCC)cc3S(=O)(=O)[O-])c3c2C(=O)c2ccccc2C3=O)c(S(=O)(=O)[O-])c1.[Na+].[Na+] [Acid Green 27] | functioned effectively in reducing urine malodor | 4.4 | 2 number of panelists | 4.5 | 3 number of panelists | 1 number of panelists | 1 number of panelists | 4 | 1 number of panelists | 2 number of panelists | 2 | 6.4 | 8.8 | Ranking (number of panelists): ranking 4 ([1]; After 6 Hours): 3 number of panelists; Ranking (number of panelists): ranking 1 ([1]; After 24 Hours): 1 number of panelists; Ranking (number of panelists): ranking 3 ([1]; After 24 Hours): 2 number of panelists; Urine Odor Ranking (number of panelists): ranking 8 [2, 3]: 2 number of panelists; Urine Odor Ranking (number of panelists): ranking 9 [2, 3]: 1 number of panelists; Average Urine Odor Ranking, Avg. Score ([2]; Second Grouping): 3.6; Urine Odor Ranking (number of panelists): ranking 2 [2, 4]: 2 number of panelists
2 | Cc1ccc(Nc2ccc(Nc3ccc(C)cc3S(=O)(=O)[O-])c3c2C(=O)c2ccccc2C3=O)c(S(=O)(=O)[O-])c1.[Na+].[Na+] [D&C Green No. 5] | functioned effectively in reducing urine malodor | 3.0 | 1 number of panelists | 5.2 | 2 number of panelists | 1 number of panelists | 1 number of panelists | 4 | 3 number of panelists | 2 number of panelists | 4 | 6.0 | 7.0 | Ranking (number of panelists): ranking 1 ([1]; After 6 Hours): 1 number of panelists; Ranking (number of panelists): ranking 3 ([1]; After 6 Hours): 3 number of panelists; Ranking (number of panelists): ranking 4 ([1]; After 24 Hours): 3 number of panelists; Ranking (number of panelists): ranking 5 ([1]; After 24 Hours): 1 number of panelists; Urine Odor Ranking (number of panelists): ranking 4 [2, 3]: 1 number of panelists; Urine Odor Ranking (number of panelists): ranking 7 [2, 3]: 2 number of panelists; urine odor reduction (panel) ([2]; Second Grouping): did not perform as well compared to the other dyes
